Consider 3 molecules from US5397705A, “Multiply mutated subtilisins” (Amgen Inc., priority 1992, dated 1995).

Common to all, as to assay: Kinetics of hydrolysis of succinyl Ala-Ala-Pro-Phe-para-nitroanilide by the subtilisin analog
Series [1] concerns the target T1, Bacillus subtilis aprA subtilisin analog [Asp^76, Ser^109, Ser^218, Ala^222] (Asn76Asp, Asn109Ser, Asn218Ser, Met222Ala) (Bacillus subtilis, UniProt P04189, M328A/N182D/N215S/N324S).
T1 construct: made in house; host or cells: Bacillus host cells (plasmid pAMB143)
T1 sequence (P04189 107-381 N182D/N215S/N324S/M328A): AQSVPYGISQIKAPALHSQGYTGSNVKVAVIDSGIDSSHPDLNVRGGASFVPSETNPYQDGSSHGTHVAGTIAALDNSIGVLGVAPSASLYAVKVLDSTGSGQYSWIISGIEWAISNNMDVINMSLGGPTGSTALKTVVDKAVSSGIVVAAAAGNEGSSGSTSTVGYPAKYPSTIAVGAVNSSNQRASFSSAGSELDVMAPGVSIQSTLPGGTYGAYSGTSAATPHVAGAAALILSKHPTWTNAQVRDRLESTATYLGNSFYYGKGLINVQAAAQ
Type of series: biochemical. The following applies: substrate succinyl Ala-Ala-Pro-Phe-para-nitroanilide. The source says:
(§1) As mentioned earlier, analog [Asp^76, Ser^109, Ser^218, Ala^222 ] has a lower specific activity toward azocasein than analog [Asp^76, Ser^109, Ser^218 ], with an approximate Vm of 0.02 dA/(min-mg/ml) versus 0.08 dA/(min-mg/ml) for [Asp^76, Ser^109, Ser^218 ]. To see if this decreased activity was specific for azocasein, or a general characteristic of the [Asp^76, Ser^109, Ser^218, Ala^222 ] analog, the kinetics of the hydrolysis of the artificial peptide succinyl Ala-Ala-Pro-Phe-para-nitroanilide was analyzed for [Asp^76, Ser^109, Ser^218, Ala^222 ] and [Asp^76, Set^109, Ser^218 ]. […] This specific activity is 4-fold less than that of aprA-subtilisin. The catalytic Ser is at position 221, and it appears that substitutions at position 222 interfere with substrate binding as well as with the rate limiting step of proteolysis.

The target of series [2] is T2, Bacillus subtilis aprA subtilisin analog [Asp^76, Ser^109, Ser^218] (Asn76Asp, Asn109Ser, Asn218Ser) (Bacillus subtilis, UniProt P04189, N182D/N215S/N324S).
T2 construct: made in house; host or cells: Bacillus subtilis (plasmid pAMB131)
T2 sequence (P04189 107-381 N182D/N215S/N324S): T1 sequence (P04189 107-381 N182D/N215S/N324S/M328A) with A222M
Type of series: biochemical. The note with it: substrate succinyl Ala-Ala-Pro-Phe-para-nitroanilide.
Source text: as §1

Substrate in series [3]: C[C@H](NC(=O)CCC(=O)O)C(=O)N[C@@H](C)C(=O)N1CCC[C@H]1C(=O)N[C@@H](Cc1ccccc1)C(=O)Nc1ccc([N+](=O)[O-])cc1
Type of series: biochemical, Bacillus subtilis. The note with it: other: substrate succinyl Ala-Ala-Pro-Phe-para-nitroanilide.
Source text: as §1

Positions count from the first letter of the chain named. Where a SMILES comes first, the peptide text is derived from it.

`C[C@H](NC(=O)CCC(=O)O)C(=O)N[C@@H](C)C(=O)N1CCC[C@H]1C(=O)N[C@@H](Cc1ccccc1)C(=O)Nc1ccc([N+](=O)[O-])cc1` [succinyl-L-alanyl-L-alanyl-L-prolyl-L-phenylalanyl-p-nitroanilide] (HELM PEPTIDE1{[O=C(O)CCC(=O)[*:2]].A.A.P.F.[O=[N+]([O-])c1ccc(N[*:1])cc1]}$$$$V2.0): the Vmax is reported as 1.1 dA/(min-nmole) in series [1] and 7.9 dA/(min-nmole) in series [2].

B1: Bacillus subtilis aprA subtilisin analog [Asp^76, Ser^109, Ser^218] (Asn76Asp, Asn109Ser, Asn218Ser) (Bacillus subtilis subsp. subtilis str. 168; … (protein)
chain: T1 sequence (P04189 107-381 N182D/N215S/N324S/M328A) with A222M
notes: made in house; host or cells: Bacillus subtilis (plasmid pAMB131)
Regarding B1, in series [3] (analog [Asp^76, Ser^109, Ser^218]), the Km is 440 µM.

B2: Bacillus subtilis aprA subtilisin analog [Asp^76, Ser^109, Ser^218, Ala^222] (Asn76Asp, Asn109Ser, Asn218Ser, Met222Ala) (Bacillus subtilis subsp. subtilis … (protein)
chain: T1 sequence (P04189 107-381 N182D/N215S/N324S/M328A)
notes: made in house; host or cells: Bacillus host cells (plasmid pAMB143)
As to B2, the Michaelis-Menten constant (Km) in series [3] (analog [Asp^76, Ser^109, Ser^218, Ala^222]) is 1400 µM.
